According to PMC4965148 (PLoS ONE, 2016):
“And” between values parts separate entries of the source, which are not always exact repeats. Identical values can stand only once. Like-named read-outs stand apart in the source and are kept apart here.

How the values were obtained:
[1] = target: HEK293/Human α7 nAChR (Homo sapiens, UniProt P36544); test: [3H]-A-585539 filtration binding; parameters: expressed in transfected cells
[2] = target: T1, rat α1β1δε nAChR (Rattus norvegicus, UniProt P09660+P25108+P25109+P25110); test: Ca2+ flux (FLIPR) agonist/antagonist assay; type: cell-based
T1 construct: expressed in transfected cells; host or cells: HEK293 (made by Bristol-Myers Squibb)

[3] = target: T2, HEK293/Human 5-HT3A (Homo sapiens, UniProt P46098); test: Ca2+ flux (FLIPR) 5-HT3A antagonist assay; type: cell-based
T2 construct: expressed in transfected cells; host or cells: HEK293 (made by Bristol-Myers Squibb)
T2 sequence (P46098 24-478): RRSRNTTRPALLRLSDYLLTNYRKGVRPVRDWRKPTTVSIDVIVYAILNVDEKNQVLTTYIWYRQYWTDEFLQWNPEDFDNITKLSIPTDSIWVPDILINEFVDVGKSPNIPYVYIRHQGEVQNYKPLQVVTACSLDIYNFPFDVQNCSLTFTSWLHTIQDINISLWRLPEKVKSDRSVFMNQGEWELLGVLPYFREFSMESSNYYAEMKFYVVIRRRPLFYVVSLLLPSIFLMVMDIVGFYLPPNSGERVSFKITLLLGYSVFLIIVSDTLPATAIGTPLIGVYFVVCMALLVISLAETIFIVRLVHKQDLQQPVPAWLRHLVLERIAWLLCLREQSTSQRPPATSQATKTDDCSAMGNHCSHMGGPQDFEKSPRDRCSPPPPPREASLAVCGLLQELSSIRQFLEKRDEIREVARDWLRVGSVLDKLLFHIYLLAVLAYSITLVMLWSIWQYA
Method: Functional activity was examined using Ca^2+-sensitive, dye-based, microfluorometric assays read on the FLIPR Tetra plate reader platform (Molecular Devices, CA, USA). Cells were plated in 384-well black, clear-bottomed Greiner poly-D-lysine coated plates at a density of ~25 K cells/well and incubated at 29°C for 48 h. Prior to assay, media contents were removed and cells incubated in assay buffer containing 5μM final Fluo-4 dye for 90 min. For nAChR assays, the dye-loading buffer was HBSS (#14175 Life Technologies) supplemented with 20 mM HEPES, 0.5 mM CaCl2, 1 mM MgCl2 and 10 μM atropine (final concentration). Test compounds were solubilized in DMSO and serially diluted in NUNC 384-well plates prior to addition of assay buffer (5.3 mM KCl + 140 mM NaCl + 20 mM Hepes + 25 mM CaCl2 + 1 mM MgCl2 + 10 μM atropine final concentration). Compounds diluted in assay buffer were added to the assay plate by the FLIPR and read for approximately 2 min. […] For 5-HT3A antagonist studies, the dye loading and compound diluent buffer was HBSS (#14025 Life Technologies) supplemented with 20 mM HEPES (final concentration) and the concentration of 5-HT used in the assay was 2 μM. Offline transformation of concentration response data was done using a 4 parameter logistic fit using a Bristol-Myers Squibb proprietary informatics software suite.

[4] = target: T3, rat α3β4 nAChR (Rattus norvegicus, UniProt P04757+P12392); test: Ca2+ flux (FLIPR) agonist/antagonist assay; type: cell-based
T3 construct: expressed in transfected cells; host or cells: HEK293 (made by Bristol-Myers Squibb)

[5] = target: T4, rat α4β2 nAChR (Rattus norvegicus, UniProt P09483+P12390); test: Ca2+ flux (FLIPR) agonist/antagonist assay; type: cell-based
T4 construct: expressed in transfected cells; host or cells: HEK293 (made by Bristol-Myers Squibb)

[6] = target: Rat Brain α7 nAChR (Rattus norvegicus, UniProt Q05941); test: [3H]-A-585539 filtration binding
[7] = target: T5, HEK293/human α7 nAChR cells (Homo sapiens, UniProt P36544); test: Whole cell voltage clamp electrophysiology; type: cell-based; details: for Net Charge (Current Area) normalized to 300 µM ACh / Peak Current normalized to 3 mM ACh: individual cells
T5 construct: expressed in transfected cells
Method: (§1) Whole-cell voltage clamp studies were conducted on HEK293/rat α7 or HEK293/human α7 nAChR cells. […] Atropine (1 μM) was included in the bathing solution. […] Cells were voltage clamped at a holding potential of -90 mV. Using the Dynaflow microfluidic perfusion system (Cellectricon; flow 26 μl/min) responses to a 300 ms application of ACh or α7 nAChR agonists were measured. Currents were filtered at 2 kHz and sampled at 10 kHz using an EPC-9 amplifier and HEKA Pulse/Patchmaster software. […] The peak current amplitude and net charge crossing the membrane (i.e. the area under the current response curve) induced by agonist application were measured using Clampfit (pClamp Suite) and normalized to the maximal response induced by ACh (3 mM ACh for peak current amplitude and 300 μM ACh for net charge).

[8] = target: T6, human 5-HT3A receptors (Homo sapiens, UniProt P46098); test: biochemical
T6 sequence (P46098 24-478): T2 sequence (P46098 24-478)

[9] = target: α7 nAChR; details: read-out: reported Ki; cited from earlier work
[10] = target: T7, HEK293/rat α7 nAChR cells (Rattus norvegicus, UniProt Q05941); test: Whole cell voltage clamp electrophysiology; type: cell-based; details: for Net Charge (Current Area) normalized to 300 µM ACh / Peak Current normalized to 3 mM ACh: individual cells
T7 construct: expressed in transfected cells
Method: as §1

[11] = HEK293/Human 5-HT3A Mean ± SD IC50, Ca2+ flux (FLIPR), antagonism of 2 μM 5-HT
[12] = Human 5-HT3A IC50 values (individual), FLIPR, individual determinations
[13] = FLIPR agonist mode, read-out: agonist EC50 at α1β1δε nAChR
[14] = FLIPR agonist mode, read-out: agonist EC50 at α3β4 nAChR
[15] = FLIPR agonist mode, read-out: agonist EC50 at α4β2 nAChR
[16] = Ca2+ flux (FLIPR), antagonism of 2 μM 5-HT, read-out: HEK293/Human 5-HT3A Mean ± SD IC50
[17] = FLIPR, individual determinations, read-out: Human 5-HT3A IC50 values (individual)

T3 sequence (P04757 26-499): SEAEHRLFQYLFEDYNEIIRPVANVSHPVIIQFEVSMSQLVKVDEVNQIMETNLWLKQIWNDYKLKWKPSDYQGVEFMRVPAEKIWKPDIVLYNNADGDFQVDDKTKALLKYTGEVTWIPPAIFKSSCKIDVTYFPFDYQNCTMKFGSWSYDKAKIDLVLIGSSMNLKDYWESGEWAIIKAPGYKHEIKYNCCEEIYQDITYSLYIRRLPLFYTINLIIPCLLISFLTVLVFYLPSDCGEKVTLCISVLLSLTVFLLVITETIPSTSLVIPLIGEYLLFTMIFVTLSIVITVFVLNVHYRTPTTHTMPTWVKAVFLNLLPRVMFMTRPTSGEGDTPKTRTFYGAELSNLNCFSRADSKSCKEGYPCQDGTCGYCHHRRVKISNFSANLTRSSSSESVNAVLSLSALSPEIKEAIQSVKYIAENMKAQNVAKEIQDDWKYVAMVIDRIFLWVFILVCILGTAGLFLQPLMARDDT
T3 sequence (P12392 21-495): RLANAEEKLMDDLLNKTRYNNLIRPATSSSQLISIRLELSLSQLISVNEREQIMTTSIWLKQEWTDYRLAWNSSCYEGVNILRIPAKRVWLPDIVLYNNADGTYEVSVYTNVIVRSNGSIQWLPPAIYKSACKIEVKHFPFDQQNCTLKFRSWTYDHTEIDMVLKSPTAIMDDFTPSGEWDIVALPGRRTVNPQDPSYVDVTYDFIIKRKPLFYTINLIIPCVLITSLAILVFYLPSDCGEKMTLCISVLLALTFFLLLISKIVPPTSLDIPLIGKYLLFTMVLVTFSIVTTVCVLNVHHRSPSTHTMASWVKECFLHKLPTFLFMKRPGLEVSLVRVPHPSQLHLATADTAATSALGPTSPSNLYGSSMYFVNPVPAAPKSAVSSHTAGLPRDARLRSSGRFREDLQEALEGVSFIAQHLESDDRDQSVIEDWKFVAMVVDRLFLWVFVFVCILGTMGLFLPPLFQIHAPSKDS
Sequence of Rat Brain α7 nAChR (Q05941 23-502): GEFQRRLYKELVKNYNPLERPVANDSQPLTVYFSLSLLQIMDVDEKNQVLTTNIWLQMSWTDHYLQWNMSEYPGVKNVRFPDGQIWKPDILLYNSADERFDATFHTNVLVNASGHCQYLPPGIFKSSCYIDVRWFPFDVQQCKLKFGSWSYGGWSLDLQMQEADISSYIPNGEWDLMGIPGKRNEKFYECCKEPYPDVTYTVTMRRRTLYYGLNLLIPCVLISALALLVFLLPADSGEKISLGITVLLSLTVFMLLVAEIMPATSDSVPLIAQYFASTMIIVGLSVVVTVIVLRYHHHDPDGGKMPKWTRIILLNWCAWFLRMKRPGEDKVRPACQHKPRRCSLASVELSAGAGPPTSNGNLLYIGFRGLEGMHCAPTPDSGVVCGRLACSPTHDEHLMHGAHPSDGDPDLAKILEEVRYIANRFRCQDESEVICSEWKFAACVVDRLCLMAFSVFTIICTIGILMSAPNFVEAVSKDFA
T7 sequence (Q05941 23-502): as above
Sequence of HEK293/Human α7 nAChR (P36544 23-502): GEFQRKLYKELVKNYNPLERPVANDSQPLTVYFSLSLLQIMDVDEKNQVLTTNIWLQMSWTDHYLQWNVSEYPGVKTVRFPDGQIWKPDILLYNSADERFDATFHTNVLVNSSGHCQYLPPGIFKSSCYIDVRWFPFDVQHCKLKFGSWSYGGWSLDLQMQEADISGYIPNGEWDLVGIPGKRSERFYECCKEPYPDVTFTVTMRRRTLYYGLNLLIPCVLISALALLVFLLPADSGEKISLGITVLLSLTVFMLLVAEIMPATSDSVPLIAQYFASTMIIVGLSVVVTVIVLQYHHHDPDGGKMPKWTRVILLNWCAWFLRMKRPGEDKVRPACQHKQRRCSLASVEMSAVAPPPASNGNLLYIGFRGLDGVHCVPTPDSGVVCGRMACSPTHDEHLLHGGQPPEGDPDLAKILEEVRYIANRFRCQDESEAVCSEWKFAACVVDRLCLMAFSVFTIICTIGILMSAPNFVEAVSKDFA
T5 sequence (P36544 23-502): as above
T1 sequence (P25108 21-457): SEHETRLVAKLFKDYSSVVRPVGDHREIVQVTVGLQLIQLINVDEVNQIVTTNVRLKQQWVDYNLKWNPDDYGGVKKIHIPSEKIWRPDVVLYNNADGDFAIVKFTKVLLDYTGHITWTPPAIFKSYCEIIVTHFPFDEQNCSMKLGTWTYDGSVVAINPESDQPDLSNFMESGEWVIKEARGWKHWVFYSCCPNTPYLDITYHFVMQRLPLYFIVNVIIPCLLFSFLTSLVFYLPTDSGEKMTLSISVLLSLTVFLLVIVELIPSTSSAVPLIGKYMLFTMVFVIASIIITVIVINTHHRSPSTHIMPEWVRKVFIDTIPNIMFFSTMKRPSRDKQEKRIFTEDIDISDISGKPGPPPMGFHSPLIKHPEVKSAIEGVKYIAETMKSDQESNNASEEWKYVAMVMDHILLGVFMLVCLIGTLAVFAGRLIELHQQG
T1 sequence (P25109 24-501): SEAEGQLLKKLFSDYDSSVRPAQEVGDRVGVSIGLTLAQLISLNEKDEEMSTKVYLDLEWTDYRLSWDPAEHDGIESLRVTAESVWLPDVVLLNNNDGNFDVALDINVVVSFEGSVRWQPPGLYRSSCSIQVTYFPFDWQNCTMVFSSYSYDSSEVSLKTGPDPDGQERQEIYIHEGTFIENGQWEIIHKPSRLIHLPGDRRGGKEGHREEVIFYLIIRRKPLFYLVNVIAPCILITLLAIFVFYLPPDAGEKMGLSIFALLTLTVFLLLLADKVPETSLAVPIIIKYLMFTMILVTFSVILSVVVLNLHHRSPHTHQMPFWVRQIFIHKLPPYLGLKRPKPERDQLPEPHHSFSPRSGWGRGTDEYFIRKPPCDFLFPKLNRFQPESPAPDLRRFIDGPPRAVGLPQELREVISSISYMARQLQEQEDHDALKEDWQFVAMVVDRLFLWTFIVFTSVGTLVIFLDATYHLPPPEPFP
T1 sequence (P25110 22-517): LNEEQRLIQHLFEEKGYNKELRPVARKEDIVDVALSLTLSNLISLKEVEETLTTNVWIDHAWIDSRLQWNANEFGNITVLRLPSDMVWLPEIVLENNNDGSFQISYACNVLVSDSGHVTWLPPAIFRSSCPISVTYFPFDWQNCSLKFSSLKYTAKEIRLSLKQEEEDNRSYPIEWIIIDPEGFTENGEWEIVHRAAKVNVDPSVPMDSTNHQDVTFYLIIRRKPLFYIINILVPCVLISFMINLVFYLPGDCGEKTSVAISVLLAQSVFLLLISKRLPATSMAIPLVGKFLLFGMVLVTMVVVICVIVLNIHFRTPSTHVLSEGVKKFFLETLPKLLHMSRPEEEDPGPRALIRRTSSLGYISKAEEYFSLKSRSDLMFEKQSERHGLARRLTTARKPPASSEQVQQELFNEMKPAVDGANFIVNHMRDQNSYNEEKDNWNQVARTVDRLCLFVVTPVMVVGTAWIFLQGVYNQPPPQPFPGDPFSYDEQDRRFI
T1 sequence (P09660 21-494): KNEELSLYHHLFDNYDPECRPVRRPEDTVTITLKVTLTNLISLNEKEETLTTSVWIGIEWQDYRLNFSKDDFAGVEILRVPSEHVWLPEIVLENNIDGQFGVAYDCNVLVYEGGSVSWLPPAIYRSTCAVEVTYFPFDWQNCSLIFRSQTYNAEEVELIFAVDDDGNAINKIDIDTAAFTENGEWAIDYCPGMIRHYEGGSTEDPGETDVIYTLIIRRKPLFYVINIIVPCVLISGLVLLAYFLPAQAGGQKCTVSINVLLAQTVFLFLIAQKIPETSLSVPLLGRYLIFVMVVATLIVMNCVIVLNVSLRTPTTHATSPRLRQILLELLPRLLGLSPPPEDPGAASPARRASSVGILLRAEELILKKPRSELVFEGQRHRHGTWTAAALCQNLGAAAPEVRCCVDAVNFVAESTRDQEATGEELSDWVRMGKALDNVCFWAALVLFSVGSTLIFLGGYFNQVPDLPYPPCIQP
T4 sequence (P09483 31-630): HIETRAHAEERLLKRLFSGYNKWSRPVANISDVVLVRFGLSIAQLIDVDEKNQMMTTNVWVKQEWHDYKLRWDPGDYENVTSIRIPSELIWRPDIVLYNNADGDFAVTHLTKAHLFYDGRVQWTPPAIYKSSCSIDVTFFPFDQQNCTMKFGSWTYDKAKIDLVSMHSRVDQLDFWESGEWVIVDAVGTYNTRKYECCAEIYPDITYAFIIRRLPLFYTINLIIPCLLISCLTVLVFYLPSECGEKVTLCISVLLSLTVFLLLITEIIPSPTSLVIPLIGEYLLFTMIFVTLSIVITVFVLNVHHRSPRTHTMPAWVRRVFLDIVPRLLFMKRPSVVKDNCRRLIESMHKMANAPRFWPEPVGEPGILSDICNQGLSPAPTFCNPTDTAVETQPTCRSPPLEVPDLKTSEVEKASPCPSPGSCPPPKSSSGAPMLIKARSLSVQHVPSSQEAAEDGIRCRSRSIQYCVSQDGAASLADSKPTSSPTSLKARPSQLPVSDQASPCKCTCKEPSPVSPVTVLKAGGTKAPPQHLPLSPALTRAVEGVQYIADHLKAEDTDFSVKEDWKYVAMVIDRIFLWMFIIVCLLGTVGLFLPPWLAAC
T4 sequence (P12390 25-500): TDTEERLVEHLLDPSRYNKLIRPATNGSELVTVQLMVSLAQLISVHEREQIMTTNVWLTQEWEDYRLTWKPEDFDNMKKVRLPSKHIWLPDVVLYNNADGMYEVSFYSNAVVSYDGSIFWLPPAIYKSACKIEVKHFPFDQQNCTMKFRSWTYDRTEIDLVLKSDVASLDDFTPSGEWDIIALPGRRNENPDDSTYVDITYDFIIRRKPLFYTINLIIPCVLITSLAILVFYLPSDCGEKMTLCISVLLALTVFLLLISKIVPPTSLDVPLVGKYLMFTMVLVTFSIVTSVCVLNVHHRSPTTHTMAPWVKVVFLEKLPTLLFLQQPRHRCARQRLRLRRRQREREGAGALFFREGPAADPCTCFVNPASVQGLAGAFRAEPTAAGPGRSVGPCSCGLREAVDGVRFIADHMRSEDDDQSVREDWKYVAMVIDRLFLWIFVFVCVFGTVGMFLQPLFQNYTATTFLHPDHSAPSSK

Clc1ccc(C2CC3CCC2N3)cn1 (racemic) [Epibatidine, (±)epibatidine]
Ki ([1]; HEK293/Human α7 nAChR Mean ± SD Ki, displacement of [3H]-A-585539): 10.5 ± 1.58 nM | Ki ([1]; HEK293/human α7 nAChR Ki (individual), individual determinations): 9.7 nM (2×) and 12.9 nM and 9.8 nM | EC50 [2]: > 1 µM

CN1CC2CN(c3ccc(-c4ccccc4)nn3)CC2C1.Cl.Cl (centres unmarked) [A-582941, octahydro-2-methyl-5-(6-phenyl-3-pyridazinyl)-pyrrolo[3,4-c]pyrrole dihydrochloride]
Ratio (5-HT3A IC50 / α7 nAChR EC50; functional selectivity) ([3]; FLIPR): 1.1 | IC50 [3, 11]: 102 ± 86 nM | IC50 [3, 12]: 73 nM and 75 nM and 76 nM and 109 nM and 47 nM and 79 nM and 59 nM and 86 nM and 344 nM and 72 nM | Ki ([1]; HEK293/Human α7 nAChR Mean ± SD Ki): 82.6 nM | Ki ([1]; HEK293/human α7 nAChR Ki (individual)): 99 nM and 72.5 nM and 76.3 nM | EC50 [2, 13]: > 100 µM | EC50 [4, 14]: > 100 µM | EC50 [5, 15]: > 100 µM | Ki ([6]; Rat Brain α7 nAChR Ki (individual)): 23 nM and 20.3 nM | Ki ([6]; Rat Brain α7 nAChR Mean ± SD Ki): 21.7 nM

O=C(N[C@H]1CN2CCC1CC2)c1cc2cccc(Cl)c2s1 [EVP-6124, (R)-7-chloro-N-(quinuclidin-3-yl)benzo[b]thiophene-2-carboxamide, reference compound]
Net Charge (Current Area) normalized to 300 µM ACh ([7]; 0.03 µM): 0.1633 and 0.2064 and 0.1153 and 0.1342 | Peak Current normalized to 3 mM ACh ([7]; 0.03 µM): 0.0231 and 0.03032 and 0.02328 and 0.01316 | Net Charge (Current Area) normalized to 300 µM ACh ([7]; EVP-6124 series 0.1 µM): 0.8405 and 1.081 and 0.8479 and 0.8723 | Peak Current normalized to 3 mM ACh ([7]; EVP-6124 series 0.1 µM): 0.0485 and 0.06704 and 0.0971 and 0.0413 | Net Charge (Current Area) normalized to 300 µM ACh ([7]; EVP-6124 series 0.3 µM): 1.201 and 1.302 and 1.445 and 1.418 | Peak Current normalized to 3 mM ACh ([7]; EVP-6124 series 0.3 µM): 0.1072 and 0.154 and 0.07666 and 0.07157 | Net Charge (Current Area) normalized to 300 µM ACh ([7]; EVP-6124 series 1 µM): 1.414 and 1.499 and 1.608 and 1.442 | Peak Current normalized to 3 mM ACh ([7]; EVP-6124 series 1 µM): 0.127 and 0.1447 and 0.2547 and 0.1421 | Net Charge (Current Area) normalized to 300 µM ACh ([7]; EVP-6124 series 3 µM): 1.22 and 1.197 and 1.304 and 1.07 | Peak Current normalized to 3 mM ACh ([7]; EVP-6124 series 3 µM): 0.1877 and 0.2441 and 0.3832 and 0.2558 | Net Charge (Current Area) normalized to 300 µM ACh ([7]; EVP-6124 series 10 µM): 0.349 and 0.4055 and 0.3939 and 0.327 | Peak Current normalized to 3 mM ACh ([7]; EVP-6124 series 10 µM): 0.2438 and 0.2654 and 0.4627 and 0.3034 | Mean ± SEM Net Charge Ymax ([7]; Human, normalized to 300 μM ACh): 1.36 ± 0.09 | Mean ± SEM Peak Current Ymaxobs @ 10 μM ([7]; Human, normalized to 3 mM ACh): 0.32 ± 0.05 | EC50 ([7]; Human, read-out: Mean ± SEM Net Charge EC50): 70 ± 20 nM | Ki [8]: 2.5 nM | IC50 [3, 16]: 4 ± 2.1 nM | IC50 [3, 17]: 6 nM and 3 nM and 1 nM and 5 nM | Ki ([1]; displacement of [3H]-A-585539, read-out: HEK293/Human α7 nAChR Mean ± SD Ki): 3 ± 1.13 nM | Ki ([1]; individual determinations, read-out: HEK293/human α7 nAChR Ki (individual)): 2.2 nM and 3.8 nM | EC50 [2, 13]: > 100 µM | EC50 [4, 14]: > 100 µM | EC50 [5, 15]: > 100 µM | Ki [9]: 10 nM

Cl.O=C(N[C@H]1CN2CCC1CC2)c1ccc(Cl)cc1 [PNU-282987, N-(3R)-1-azabicyclo[2.2.2]oct-3-yl-4-chloro-benzamide hydrochloride]
Ratio (5-HT3A IC50 / α7 nAChR EC50; functional selectivity) ([3]; FLIPR): 264 | IC50 [3, 11]: 24900 nM | IC50 [3, 12]: 32100 nM and 23600 nM and 6350 nM and 38400 nM and 24100 nM | EC50 [2, 13]: > 100 µM | EC50 [4, 14]: > 100 µM | EC50 [5, 15]: > 100 µM

O=C(N[C@@H]1C2CCN(CC2)[C@H]1Cc1cccnc1)c1cc2ccccc2o1 [TC-5619, (2S,3R)-N-[2-(pyridin-3-ylmethyl)-1-azabicyclo[2.2.2]oct-3-yl]benzo[b]furan-2-carboxamide]
Ki ([8]; human 5-HT3A Ki, displacement of [3H]-granisetron): > 10000 nM | IC50 [3, 16]: > 100000 nM | IC50 [3, 17]: > 100000 nM | Net Charge (Current Area) normalized to 300 µM ACh ([10]; 0.001 µM): 0.01291 and 0.1795 and 0.008199 | Peak Current normalized to 3 mM ACh ([10]; 0.001 µM): 0.003543 and 0.01162 and 0.003662 | Net Charge (Current Area) normalized to 300 µM ACh ([10]; 0.003 µM): -0.00013 and 0.03241 and 0.001885 | Peak Current normalized to 3 mM ACh ([10]; 0.003 µM): 0.003116 and 0.008701 and 0.005453 | Net Charge (Current Area) normalized to 300 µM ACh ([10]; 0.01 µM): 0.000016 and 0.002188 and -0.00959 | Peak Current normalized to 3 mM ACh ([10]; 0.01 µM): 0.006073 and 0.007536 and 0.009875 | Net Charge (Current Area) normalized to 300 µM ACh ([10]; 0.03 µM): 0.1492 and 0.1468 and 0.2028 | Peak Current normalized to 3 mM ACh ([10]; 0.03 µM): 0.02004 and 0.01567 and 0.02139 | Mean ± SEM Net Charge Ymax ([10]; Rat, normalized to 300 μM ACh): 1.26 ± 0.02 | Mean ± SEM Peak Current Ymaxobs @ 10 μM ([10]; Rat, normalized to 3 mM ACh): 0.55 ± 0.06 | Net Charge (Current Area) normalized to 300 µM ACh ([10]; TC-5619 series 0.1 µM): 0.6879 and 0.7239 and 0.8481 | Peak Current normalized to 3 mM ACh ([10]; TC-5619 series 0.1 µM): 0.05408 and 0.04485 and 0.05183 | Net Charge (Current Area) normalized to 300 µM ACh ([10]; TC-5619 series 0.3 µM): 1.093 and 1.107 and 1.105 | Peak Current normalized to 3 mM ACh ([10]; TC-5619 series 0.3 µM): 0.1599 and 0.1241 and 0.1149 | Net Charge (Current Area) normalized to 300 µM ACh ([10]; TC-5619 series 1 µM): 1.242 and 1.143 and 1.297 | Peak Current normalized to 3 mM ACh ([10]; TC-5619 series 1 µM): 0.276 and 0.2576 and 0.2679 | Net Charge (Current Area) normalized to 300 µM ACh ([10]; TC-5619 series 3 µM): 1.234 and 1.271 and 1.312 | Peak Current normalized to 3 mM ACh ([10]; TC-5619 series 3 µM): 0.4166 and 0.4279 and 0.4555 | Net Charge (Current Area) normalized to 300 µM ACh ([10]; TC-5619 series 10 µM): 1.226 and 1.317 and 1.306 | Peak Current normalized to 3 mM ACh ([10]; TC-5619 series 10 µM): 0.4847 and 0.4851 and 0.6732 | EC50 [2]: > 100 µM | EC50 [4]: > 100 µM | EC50 [5]: > 100 µM | Ki [9]: 1 nM

C[N+]1(C)CC2CC1CN2c1ccc(-c2ccccc2)nn1 (centres unmarked) [[^3H]-A-585539, ^3H-2,2-dimethyl-5-(6-phenyl-3-pyridazinyl)-5-aza-2-azoniabicyclo[2.2.1]heptane iodide]
Kd ([1]; recombinant human α7 nAChR, n = 2, read-out: mean Kd, saturation binding): 0.656 nM
